Consider 13 compounds from patent publication US7737288B2, “Non-steroidal androgen receptor modulators, preparation process, pharmaceutical composition and use thereof” (Shanghai Institute of Materia Medica Chinese Academy of …, priority 2005, dated 2010).

The first data set has as its system LNCaP cells. In words: Test of prostate cancer cell proliferation induced by DHT (MTT). The data set is classed as cell-based. Conditions: Homo sapiens, 144 h, read-out: IC50, inhibition of LNCaP cell proliferation stimulated by DHT. As for the experimental part: LNCaP cells were cultured in RPMI1640 medium containing 10% FBS and 2 mM L-glutamine. The above medium was replaced by RPMI1640 medium containing 5% CD-FBS one day before experiment. When the cells grew to 90% confluence, the cells were added to 96-well plate with 4000 cells/90 μL/well after dissociated with trypsin, and were cultured at 37° C. overnight. The compounds to be tested were added to the cells with 10 μL/well after diluted to certain concentrations. […]. […] MTT solution (5 mg/mL) was added with 20 μL/well before the culture was completed. Light absorption values at 560 nm were measured with the reference wavelength of 690 nm.
In the case of `O=C(CC(Nc1ccc([N+](=O)[O-])cc1)c1ccco1)c1ccc(Cl)cc1` (stereo not drawn) [MWW6032], the IC50 was found to be 2280 nM.

The subject of another data set is androgen receptor. Nature of the data set: Test of reporter gene expression (luciferase) in transfected MDA-MB-453 cells. The data set is classed as cell-based, human.
Conditions: not given
(In general: Reporter assays use an easily measured gene product as a stand-in for the process of interest.)
Take `O=C(CC(Nc1ccc([N+](=O)[O-])cc1)c1ccco1)c1ccc(Cl)cc1` (stereo not drawn) [MWW6032]: the “androgen receptor antagonistic activities, IC50 compared with bicalutamide” value is reported as “close to the androgen receptor antagonist bicalutamide”. As to `O=C(CC(Nc1ccc([N+](=O)[O-])cc1)c1ccccc1)c1ccc(Cl)cc1` (stereo not drawn) [MWW6003], the “androgen receptor antagonistic activities, IC50 compared with bicalutamide” value is given as “close to the androgen receptor antagonist bicalutamide”.

Another data set concerns the target T1, androgen receptor (Homo sapiens, UniProt P10275).
T1 construct: made in house; host or cells: insect cells (baculovirus expression system)
T1 sequence (P10275 1-920): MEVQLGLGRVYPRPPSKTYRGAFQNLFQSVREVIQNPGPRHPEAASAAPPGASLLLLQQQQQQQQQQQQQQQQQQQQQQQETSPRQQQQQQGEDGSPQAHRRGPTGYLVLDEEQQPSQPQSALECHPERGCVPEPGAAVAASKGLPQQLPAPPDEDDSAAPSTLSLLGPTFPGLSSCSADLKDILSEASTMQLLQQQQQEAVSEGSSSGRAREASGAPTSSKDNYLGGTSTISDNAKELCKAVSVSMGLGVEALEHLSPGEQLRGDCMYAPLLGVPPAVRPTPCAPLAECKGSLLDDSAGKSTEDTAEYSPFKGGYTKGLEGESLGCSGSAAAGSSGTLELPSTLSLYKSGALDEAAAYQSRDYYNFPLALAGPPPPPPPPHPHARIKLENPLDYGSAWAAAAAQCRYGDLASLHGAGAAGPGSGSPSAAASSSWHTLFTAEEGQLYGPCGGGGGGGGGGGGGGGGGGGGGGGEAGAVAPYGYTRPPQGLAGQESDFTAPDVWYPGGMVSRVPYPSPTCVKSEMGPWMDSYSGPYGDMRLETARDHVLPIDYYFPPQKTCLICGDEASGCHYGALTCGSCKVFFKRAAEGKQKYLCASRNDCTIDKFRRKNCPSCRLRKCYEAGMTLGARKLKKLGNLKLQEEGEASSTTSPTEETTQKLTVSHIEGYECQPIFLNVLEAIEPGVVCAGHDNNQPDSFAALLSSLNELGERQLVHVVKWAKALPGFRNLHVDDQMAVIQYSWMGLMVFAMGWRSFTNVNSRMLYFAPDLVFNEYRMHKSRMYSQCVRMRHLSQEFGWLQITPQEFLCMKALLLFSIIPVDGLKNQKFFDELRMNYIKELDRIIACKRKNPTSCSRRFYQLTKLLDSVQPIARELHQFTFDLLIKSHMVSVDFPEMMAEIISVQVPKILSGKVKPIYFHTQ
Nature of the data set: Test of receptor binding activity ([3H]DHT competition, hydroxyapatite). Conditions: Receptor binding (IC50, nM), competition with 5 nM [3H]DHT, overnight at 4° C.
Protocol: Then the resultant mixture was added into the plates with a volume of 195 μl each well immediately after mixed thoroughly, and incubated overnight at 4° C. After the incubation was completed, 50 μl of hydroxyapatite (HA) solution (25% HA, 25 mM Na3PO4, pH7.4) was added to each well of the calandria, uniformly mixed by shaking, and incubated for 10 minutes, during the period it was shaken once every 3 minutes. The centrifugation was conducted at 2500 rpm for 3 minutes, the supernatant was sucked out, and the precipitate was reserved. Two hundred μl of the assay buffer was added into each well, the precipitate is avoided to be shaken as far as possible, and the centrifugation was conducted for 3 minutes again. The supernatant was sucked out, and the precipitate was reserved. The centrifugation was repeated once, the supernatant was sucked out, and the precipitate was reserved. 300 μl of scintillation fluid was added to each well.
Regarding `O=C(CC(Nc1ccc([N+](=O)[O-])c(C(F)(F)F)c1)c1ccccc1)c1ccc(Cl)cc1` (stereo not drawn) [MWW6016], the IC50 came out at 9.49 nM.

The data set is the same for the next values; noted with them: competition with 5 nM [3H]DHT, overnight at 4° C.; read-out: Receptor binding (IC50).
Consider `O=C(CC(Nc1ccc(Cl)c([N+](=O)[O-])c1)c1ccco1)c1ccc(Br)cc1` (stereo not drawn) [MWW6031], for which the IC50 worked out at 3.61 nM.

As for `O=C(CC(Nc1ccc([N+](=O)[O-])cc1)c1ccccc1)c1ccc(Br)cc1` (stereo not drawn) [MWW6015], the IC50 is 2.85 nM. Still for that read-out and setting: under `O=C(CC(Nc1ccc(Cl)c([N+](=O)[O-])c1)c1ccccc1)c1ccc(Cl)cc1` (stereo not drawn) [MWW6021] stands 6.45 nM.

Take `O=C(CC(Nc1ccc([N+](=O)[O-])cc1)c1ccco1)c1ccc(Br)cc1` (stereo not drawn) [MWW6033]: the IC50 turned out to be 3.01 nM. Same read-out and setting: under `O=C(CC(Nc1ccc([N+](=O)[O-])cc1)c1ccccc1)c1ccc(Cl)cc1` (stereo not drawn) [MWW6003] stands 2.93 nM; under `O=C(CC(Nc1ccc(Cl)c([N+](=O)[O-])c1)c1ccccc1)c1ccc(Br)cc1` (stereo not drawn) [MWW6022], 4.31 nM. As to `O=C(CC(Nc1ccc(Cl)c([N+](=O)[O-])c1)c1ccco1)c1ccc(Cl)cc1` (stereo not drawn) [MWW6030], the IC50 is 3.25 nM.

System in another data set: not given
Experiment: not given
Conditions: not given
In the case of `Cc1ccc(C(=O)CC(Nc2ccc(C(=O)O)cc2)c2ccccc2)cc1` (stereo not drawn) [Example 4, 3-phenyl-3-(4-carboxylanilino)-1-(4-methylphenyl)-1-acetone], the melting point (in general, the temperature, or range, at which the solid turns liquid) is 208 to 210 °C.

Compound `Cc1ccc(C(=O)CC(Nc2ccc(Cl)cc2)c2ccccc2)cc1` (stereo not drawn) [Example 1, 3-phenyl-3-(4-chloroanilino)-1-(4-methylphenyl)-1-acetone] displayed a melting point of 152 to 154 °C.

The compound `Cc1ccc(C(=O)CC(Nc2ccccc2)c2ccc(C)cc2)cc1` (stereo not drawn) [Example 5, 3-(4-methylphenyl)-3-anilino-1-(4-methylphenyl)-1-acetone] yielded a melting point of 131 to 132 °C. In turn, `Cc1ccc(C(=O)CC(Nc2ccc([N+](=O)[O-])cc2)c2ccccc2)cc1` (stereo not drawn) [Example 3, 3-phenyl-3-(4-nitroanilino)-1-(4-methylphenyl)-1-acetone] showed a melting point of 157 to 159 °C.
